From patent publication EP2913333A1 (priority 2014, dated 2015)
Counter-ions that a name gives are not always drawn.

Experiments:
S. aureus DltA = biological target: T1, S. aureus DltA (Staphylococcus aureus, UniProt Q2FZW6); assay: in vitro DltA activity assay (luminescence, IC50 determination); type: biochemical
T1 construct: made in house; host or cells: E. coli BL21
T1 sequence (Q2FZW6 1-485): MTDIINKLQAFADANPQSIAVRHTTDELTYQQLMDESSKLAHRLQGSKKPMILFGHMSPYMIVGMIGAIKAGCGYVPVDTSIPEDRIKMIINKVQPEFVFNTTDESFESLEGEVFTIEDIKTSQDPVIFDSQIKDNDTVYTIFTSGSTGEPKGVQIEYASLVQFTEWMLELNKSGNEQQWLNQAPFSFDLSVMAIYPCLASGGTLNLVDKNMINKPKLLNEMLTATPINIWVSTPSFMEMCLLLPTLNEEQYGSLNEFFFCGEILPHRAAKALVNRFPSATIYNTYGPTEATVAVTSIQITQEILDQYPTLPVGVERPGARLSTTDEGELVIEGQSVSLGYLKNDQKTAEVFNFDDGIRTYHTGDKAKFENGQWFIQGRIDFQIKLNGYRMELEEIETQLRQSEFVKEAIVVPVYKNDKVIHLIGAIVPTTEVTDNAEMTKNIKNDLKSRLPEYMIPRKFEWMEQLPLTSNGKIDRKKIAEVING
Procedure: (§1) The effect of the compounds of the invention on DltA enzymes has been based on the measure of their inhibition of DltA activity in vitro. To this end, recombinant proteins DltA were expressed and purified after cloning of the genes of S. aureus, E. faecalis, E. faecium and S. agalactiae as described thereafter. The capacity of the compounds of the invention to inhibit DltA enzymatic activity was assessed using the DltA assays as described below: • The dltA gene was amplified from chromosomal DNA of S. aureus, E. faecalis, E. faecium and S. agalactiae and introduced into E. coli BL21 (Invitrogen, Carlsbad, CA) following manufacturer's instruction. Bacteria were grown at 37°C under aerobic conditions and isopropyl-beta-D-thiogalactopyranoside (IPTG) was added to 0.5-1 mM when OD600 of the bacterial culture had reached 0.5. After a further incubation for 3 hours, cells were harvested by centrifugation. Purification of the recombinant DltA protein was performed by affinity chromatography on nickel-nitrilotriacetic acid (Ni-NTA) column following manufacturer's instructions (Qiagen). Fractions containing recombinant DltA protein were adjusted to 50% glycerol and stored at -20°C until use.
(§2) The binding potency of the inhibitors against DltA enzyme was assessed by IC50 determination in an in vitro DltA activity assay. The assay buffer "AB" contained 50 mM Hepes pH8.0, 10mM MgCl2, 50mM KCI, 0.012% Triton-X100, 10mM DTT and 100nM Myelin-basic protein. The following components were added in a white polystyrene Costar plate up to a final volume of 30µL: 3µL DMSO, or inhibitor dissolved in DMSO and 27µL DltA enzyme in AB. After 30min of preincubation at room temperature, 30µL of Substrates mix in AB were added in each well to a final volume of 60µL. This reaction mixture was then composed of DltA (produced in house from S. aureus, E. faecalis, E. faecium and S. agalactiae), 0.5mM D-Alanine (Sigma), 0.5-5µM ATP (Sigma) and 0.05 u/ml inorganic pyrophosphatase (Sigma) in assay buffer. After typically 1-2hours of incubation at room temperature (conversion rate around 30%), 30µL of the revelation mix were added to a final volume of 90µL, including the following constituents at the respective final concentrations: 10000 u/ml luciferase (Sigma), 30µM D-luciferin (Sigma), 100µM N-acetylcysteamine (Aldrich). Luminescence intensity was immediately measured on a Fluostar Optima (BMG) (excitation 360nm, emission 520nm) and converted into inhibition percentages.
(§3) For compounds interfering with the luminescent signal (quenching), the same experiment without DltA enzyme was performed to allow quenching determination and correction.

E. feacium DltA = biological target: T2, E. feacium DltA (Enterococcus faecium, UniProt Q3XZT7); assay: as above; type: biochemical; settings: recombinant DltA, 30min preincubation at room temperature, 0.5mM D-Alanine, 0.5-5µM ATP; read-out: E. feacium DltA IC50
T2 sequence (Q3XZT7 1-504): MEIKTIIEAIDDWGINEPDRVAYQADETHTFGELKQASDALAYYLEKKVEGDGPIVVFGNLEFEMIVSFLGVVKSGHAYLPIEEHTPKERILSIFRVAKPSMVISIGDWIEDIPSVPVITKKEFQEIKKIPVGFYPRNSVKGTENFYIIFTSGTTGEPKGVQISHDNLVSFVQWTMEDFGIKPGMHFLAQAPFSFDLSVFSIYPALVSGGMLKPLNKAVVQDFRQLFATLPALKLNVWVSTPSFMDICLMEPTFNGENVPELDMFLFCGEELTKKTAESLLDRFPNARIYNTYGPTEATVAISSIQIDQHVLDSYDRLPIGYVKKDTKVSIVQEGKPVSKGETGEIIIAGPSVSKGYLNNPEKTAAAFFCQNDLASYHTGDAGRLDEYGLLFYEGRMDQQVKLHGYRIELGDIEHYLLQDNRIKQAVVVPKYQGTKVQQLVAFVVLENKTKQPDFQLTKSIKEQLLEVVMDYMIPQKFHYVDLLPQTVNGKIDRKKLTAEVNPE
Procedure: as §1, §2, §3

E. feacalis DltA = biological target: T3, E. feacalis DltA (Enterococcus faecalis, UniProt Q830N0); assay: biochemical
T3 sequence (Q830N0 1-506): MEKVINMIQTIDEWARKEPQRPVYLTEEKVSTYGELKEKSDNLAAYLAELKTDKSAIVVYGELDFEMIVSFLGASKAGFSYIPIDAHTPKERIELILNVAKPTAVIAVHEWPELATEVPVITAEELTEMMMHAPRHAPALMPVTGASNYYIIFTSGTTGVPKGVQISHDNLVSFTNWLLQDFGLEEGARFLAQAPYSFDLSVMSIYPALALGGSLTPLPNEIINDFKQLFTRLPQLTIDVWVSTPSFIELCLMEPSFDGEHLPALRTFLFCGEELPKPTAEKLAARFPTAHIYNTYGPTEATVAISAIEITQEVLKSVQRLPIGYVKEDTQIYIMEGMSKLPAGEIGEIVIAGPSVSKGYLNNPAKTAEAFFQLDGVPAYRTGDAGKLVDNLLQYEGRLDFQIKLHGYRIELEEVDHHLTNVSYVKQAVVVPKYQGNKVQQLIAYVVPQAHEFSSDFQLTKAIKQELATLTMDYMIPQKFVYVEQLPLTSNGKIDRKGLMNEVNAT
Procedure: as §1, with “To” for “The effect of the compounds of the invention on DltA enzymes has been based on the measure of their inhibition of DltA activity in vitro. To”
as §2, §3

S. Agalactiae DltA = biological target: T4, S. Agalactiae DltA (Streptococcus agalactiae serotype III, UniProt Q8VM67); assay: biochemical
T4 sequence (Q8VM67 1-511): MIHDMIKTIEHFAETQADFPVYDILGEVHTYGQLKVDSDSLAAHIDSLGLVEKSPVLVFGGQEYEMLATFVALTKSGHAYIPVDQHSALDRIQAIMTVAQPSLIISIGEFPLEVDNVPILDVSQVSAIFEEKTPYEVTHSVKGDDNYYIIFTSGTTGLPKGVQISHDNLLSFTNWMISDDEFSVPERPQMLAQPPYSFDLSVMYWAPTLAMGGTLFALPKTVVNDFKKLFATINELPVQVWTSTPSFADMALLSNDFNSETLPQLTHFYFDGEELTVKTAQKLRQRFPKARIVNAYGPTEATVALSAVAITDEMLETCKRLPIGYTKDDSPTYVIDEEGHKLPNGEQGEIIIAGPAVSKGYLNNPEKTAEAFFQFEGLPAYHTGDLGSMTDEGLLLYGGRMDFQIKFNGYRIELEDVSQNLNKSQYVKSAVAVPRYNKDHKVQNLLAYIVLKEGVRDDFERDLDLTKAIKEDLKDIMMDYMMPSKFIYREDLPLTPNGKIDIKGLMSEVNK
Procedure: as §1, with “To” for “The effect of the compounds of the invention on DltA enzymes has been based on the measure of their inhibition of DltA activity in vitro. To”
as §2, §3

## O=c1[nH]cnc2c1c(CCCO)cn2-c1ccc2c(c1)ncn2C1CCCCC1 [Example 51, 7-(1-Cyclohexyl-1H-benzoimidazol-5-yl)-5-(3-hydroxy-propyl)-3,7-dihydro-pyrrolo[2,3-d]pyrimidin-4-one]
S. aureus DltA
  IC50: 1100 nM
E. feacium DltA
  IC50: 1200 nM
E. feacalis DltA
  IC50: 330 nM
S. Agalactiae DltA
  IC50: 4500 nM

## O=c1[nH]cnc2c(-c3ccc4c(c3)ncn4C3CCCCC3)cn(C3CCNCC3)c12 [Example 73, 7-(1-Cyclohexyl-1H-benzimidazol-5-yl)-5-piperidin-4-yl-3,5-dihydro-pyrrolo[3,2-d]pyrimidin-4-one]
S. aureus DltA
  IC50: 72 nM
E. feacium DltA
  IC50: 280 nM
E. feacalis DltA
  IC50: 61 nM
S. Agalactiae DltA
  IC50: 1000 nM

## O=c1[nH]cnc2c(-c3ccc4c(c3)ncn4C3CCCCC3)sc(N3CCNCC3)c12 [Example 28, 7-(1-cyclohexyl-1H-benzoimidazol-5-yl)-5-piperazin-1-yl-3H-thieno[3,4-d]pyrimidin-4-one hydrochloride]
S. aureus DltA
  IC50: 150 nM
E. feacium DltA
  IC50: 160 nM
E. feacalis DltA
  IC50: 48 nM
S. Agalactiae DltA
  IC50: 1200 nM

## O=c1[nH]cnc2c(-c3ccc4c(c3)ncn4C3CCCCC3)sc(N3CCC(CCO)C3)c12 (centres unmarked) [Example 11, 7-(1-Cyclohexyl-1H-benzoimidazol-5-yl)-5-[3-(2-hydroxy-ethyl)-pyrrolidin-1-yl]-3H-thieno[3,4-d]pyrimidin-4-one]
S. aureus DltA
  IC50: 140 nM
E. feacium DltA
  IC50: 190 nM
E. feacalis DltA
  IC50: 120 nM
S. Agalactiae DltA
  IC50: 5400 nM

## O=c1[nH]cnc2c(-c3ccc4c(c3)ncn4C3CCCCC3)sc(N3CC4C(O)C4C3)c12 (centres unmarked) [Example 17, 7-(1-Cyclohexyl-1H-benzoimidazol-5-yl)-5-(6-hydroxy-3-aza-bicyclo[3.1.0]hex-3-yl)-3H-thieno[3,4-d]pyrimidin-4-one]
S. aureus DltA
  IC50: 220 nM
E. feacium DltA
  IC50: 190 nM
E. feacalis DltA
  IC50: 85 nM
S. Agalactiae DltA
  IC50: 2200 nM

## O=c1[nH]cnc2c(-c3ccc4c(c3)ncn4C3CCCCC3)sc(N3CC4CNCC4C3)c12 (centres unmarked) [Example 25, 7-(1-Cyclohexyl-1H-benzoimidazol-5-yl)-5-(hexahydro-pyrrolo[3,4-c]pyrrol-2-yl)-3H-thieno[3,4-d]pyrimidin-4-one hydrochloride]
S. aureus DltA
  IC50: 39 nM
E. feacium DltA
  IC50: 88 nM
E. feacalis DltA
  IC50: 22 nM
S. Agalactiae DltA
  IC50: 630 nM

## O=c1[nH]cnc2c(-c3ccc4c(c3)ncn4C3CCCCC3)cn(CCCO)c12 [Example 67, 7-(1-Cyclohexyl-1H-benzimidazol-5-yl)-5-(3-hydroxy-propyl)-3,5-dihydro-pyrrolo[3,2-d]pyrimidin-4-one]
S. aureus DltA
  IC50: 150 nM
E. feacium DltA
  IC50: 930 nM
E. feacalis DltA
  IC50: 180 nM
S. Agalactiae DltA
  IC50: 3800 nM

## O=c1[nH]cnn2c(-c3ccc4c(c3)ncn4C3CCCCC3)cc(N3CC[C@H](CO)C3)c12 [Example 63, 7-(1-Cyclohexyl-1H-benzoimidazol-5-yl)-5-((S)-3-hydroxymethyl-pyrrolidin-1-yl)-3H-pyrrolo[2,1-f][1,2,4]triazin-4-one]
S. aureus DltA
  IC50: 460 nM
E. feacium DltA
  IC50: 1100 nM
E. feacalis DltA
  IC50: 350 nM
S. Agalactiae DltA
  IC50: 25000 nM

## O=c1[nH]cnc2c1c(C1CCC(CO)C1)cn2-c1ccc2c(c1)ncn2C1CCCCC1 (centres unmarked) [Example 58, 7-(1-Cyclohexyl-1H-benzoimidazol-5-yl)-5-(3-hydroxymethyl-cyclopentyl)-3,7-dihydro-pyrrolo[2,3-d]pyrimidin-4-one]
S. aureus DltA
  IC50: 810 nM
E. feacium DltA
  IC50: 480 nM
E. feacalis DltA
  IC50: 190 nM
S. Agalactiae DltA
  IC50: 6100 nM

## O=c1[nH]cnc2c(-c3ccc4c(c3)ncn4[C@@H]3CCCC[C@H]3F)sc(N3CC[C@H](CO)C3)c12 [Example 47, 7-[1-((1R,2R)-2-fluoro-cyclohexyl)-1H-benzoimidazol-5-yl]-5-((S)-3-hydroxymethyl-pyrrolidin-1-yl)-3H-thieno[3,4-d]pyrimidin-4-one]
S. aureus DltA
  IC50: 77 nM
E. feacium DltA
  IC50: 110 nM
E. feacalis DltA
  IC50: 46 nM
S. Agalactiae DltA
  IC50: 2600 nM

## O=c1[nH]cnc2c(-c3ccc4c(c3)ncn4C3CCCCC3)sc(N3CCC(CO)(CO)C3)c12 [Example 13, 5-(3,3-Bis-hydroxymethyl-pyrrolidin-1-yl)-7-(1-cyclohexyl-1H-benzoimidazol-5-yl)-3H-thieno[3,4-d]pyrimidin-4-one]
S. aureus DltA
  IC50: 44 nM
E. feacium DltA
  IC50: 140 nM
E. feacalis DltA
  IC50: 41 nM
S. Agalactiae DltA
  IC50: 980 nM
